Laboratory results taken from US7256042B2, “Process for making hepatocytes from pluripotent stem cells” (Geron Corporation, priority 2000, dated 2007).

What was measured:
[1] = test system: hES cell derived embryoid bodies; test: Comparison of potential hepatocyte differentiation agents; format: cell-based, human; settings: for Induction of hepatocyte phenotype: EBs 4 days in suspension, replated on plates coated with collagenase 1, cultured with each compound for 6 days, analogs at 5 mM; for Effect on hepatocyte differentiation (in words): concentration of 5 mM; for Induction of hepatocyte phenotype: key: +: Causes hepatocyte differentiation and selective elimination of other cell types; −: No inductive effect; ±: Mild inductive effect; may allow growth or survival of other cell types
Description: (§1) The effect of sodium butyrate was compared with other potential hepatocyte differentiation agents in a similar protocol. Embryoid bodies were cultured in suspension for 4 days, and then replated on plates coated with collagenase 1. The cells were then cultured in the presence of each compound for 6 days.

hES cells = test: Phenotype of hepatocyte lineage cells made using sodium n-butyrate or Trichostatin A; format: cell-based, human; settings: 5 mM sodium n-butyrate; 100 nM Trichostatin A
Description: as §1
At 75-100 nM, Trichostatin A appeared to both induce hepatocyte differentiation and select against survival of other cell types.

Structure (SMILES)	Induction of hepatocyte phenotype [1]	Effect on hepatocyte differentiation (in words) ([1]; 6 days)	also measured
CC(C)C(=O)O [Isobutyric acid]	±	effective in causing hepatocyte differentiation	
CCCCC(=O)O [Valeric acid]	−		
CCCCCC(=O)O [Caproic acid]	−		
CC(O)CC(=O)O (stereo not drawn) [β-hydroxybutyric acid]	−		
[Cl-].[Na+] [NaCl]		no effect	
CCC(O)C(=O)O (stereo not drawn) [α-hydroxybutyric acid]	−		
CCC(=O)O [Propionic acid]		effective in causing hepatocyte differentiation	
CCCC(=O)O [n-Butyric Acid]		equally effective	
CC(/C=C/C(=O)NO)=C\[C@@H](C)C(=O)c1ccc(N(C)C)cc1 [Trichostatin A]	+		Concentration range found ineffective ([1]; EB-derived cells, 6 days): 10 to 50 nM; Concentration range found to be toxic to cells ([1]; EB-derived cells, 6 days): 2.5 to 100 µM; Concentration range that induces hepatocyte differentiation and selects against survival of other cell types ([1]; EB-derived cells, 6 days): 0.075 to 0.1 µM; CK18, positive cells (hES cells): >70%; CK19, positive cells (hES cells): >90%; Glycogen staining, positive cells (hES cells): >50%; albumin, positive cells (hES cells): 41%; α1-antitrypsin, positive cells (hES cells): 81%
